Assay results: US20130237582A1, “PHARMACEUTICAL COMBINATION OF PACLITAXEL AND A CDK INHIBITOR” (Piramal Enterprises Limited, priority 2010, published 2013)

What was measured:
[1] = test system: MDA-MB-231; test: Combination in vitro cytotoxicity (PI) assay; assay type: cell-based; conditions: Homo sapiens, then CM 72 h, read-out: % inhibition of Group IA
Description: The propidium iodide fluorescence assay (PI) was carried out according to the procedure mentioned in Anticancer Drugs, 1995, 6, 522-32.
(§1) The assay was developed to characterize the in vitro growth of human tumor cell lines as well as to test the cytotoxic activity of the test compounds. Propidium iodide (PI) was used as a dye, which penetrates only, damaged cellular membranes. Intercalation complexes are formed by PI with double-stranded DNA, which effect an amplification of the fluorescence. After freezing the cells at −20° C. for 24 h, PI had access to total DNA leading to total cell population counts. Background readings were obtained from cell-free wells containing media and propidium iodide.
The human triple negative breast cancer cell line, MDA-MB-231 was seeded at a density of 1500-3000 cells/well in 180 μL of RPMI-1640 medium in a 96-well plate and incubated for about 16 h in humidified 5% CO2 incubator at 37±1° C. to allow the cells to adhere. The schedule consists of six treatment groups. In every treatment group, 20 μL of 10× compound (dissolved first in DMSO and then diluted in cell medium, final DMSO concentration not exceeding 0.5%) was used in the wells and the plate was incubated in humidified 5% CO2 incubator at 37±1° C. The medium was removed from the wells and washed with PBS. 100 μL of PI working solution (7 μg/mL) per well was added and the plates were stored at −80° C. for about 16 h. The plates were thawed and the fluorescence was measured using the POLARstar optima plate reader (USA) at excitation 536 nm and emission 590 nm.
(PI stock solution of 1 mg/mL was prepared by dissolving 1 mg PI in 1 mL of distilled water. PI working solution was prepared by adding 140 μL of stock solution to PBS to make up the volume to […] (7 μg/mL)).
The synergistic effects in TNBC MDA-MB-231 cell line have been evaluated using the CompuSyn software by Chou and Talalay, described in Pharmacological Reviews, 2006, 58, 621-681. Combination index (CI) is used to evaluate if a combination is additive, synergistic or antagonistic. CI<1 is synergistic, CI=1 is additive and CI>1 is antagonistic.

[2] = test system: MDA-MB-231; test: Cytotoxicity assay using propidium iodide (PI); assay type: cell-based, human; conditions: Homo sapiens, 48 h treatment, PI assay
Description: as §1, with “The propidium iodide fluorescence assay (PI) was carried out according to the procedure mentioned in Anticancer Drugs, 1995, 6, 522-32. The” for “The”, “the” for “the test”, “only” for “only,”, “iodide. The human breast cancer cell lines (i.e. […] Control wells were treated with vehicle (DMSO). At the end of the incubation periods, the plates were assayed using PI cytotoxicity assay protocol. Percent cytoxicity was calculated at various drug concentrations and from the graph plotted the IC50 values were determined.” for “iodide.”

[3] = test system: MDA-MB-468; test: Cell cycle progression and apoptosis by flow cytometry (sub-G1); assay type: cell-based, human; conditions: 50 μM
Description: Before analysis, cells were washed twice with PBS to remove the fixative and re-suspended in PBS containing 50 μg/mL propidium iodide and 50 μg/mL RNaseA. After incubation at room temperature (20-35° C.) for 20 min, cells were analyzed using flow cytometry. A Becton Dickinson FACS Calibur flow cytometer (BD, USA) was used for these studies. The argon ion laser set at 488 nm was used as an excitation source. Cells with DNA content between 2n and 4n were designated as being in G1, S and G2/M phases of the cell cycle, as defined by the level of red fluorescence. […] The number of cells in each cell cycle compartment was expressed as a percentage of the total number of cells present. The results are shown in Table 3 and graphically presented in FIG. 3A (MCF-7 cell lines) and FIG. 3B (MDA-MB-231 cell lines).
Comparison of the effect of Compound A and PARP inhibitor BSI-201 (Iniparib developed by Sanofi-Aventis. BSI-201 is prepared in-house) on cell cycle progression and apoptosis was evaluated in two TNBC cell lines. The asynchronous human TNBC cell lines MDA-MB-231 and MDA-MB-468 were seeded in […] tissue culture flask at a density of 0.5×10^6 cells per flask in RPMI 1460 with 10% FCS. After 24 h, cells were treated either with 1.5 and 3.0 μM of Compound A or 50 μM of PARP inhibitor BSI-201 for 72 h. After the incubation cells were harvested (trypsinised) and processed as given in example 6.

[4] = test system: VEGF; test: VEGF reporter gene based assay (M-9 cells); assay type: cell-based; conditions: Homo sapiens, hypoxia, 20-24 h, read-out: IC50 for VEGF inhibition under hypoxia
Description: A cell line M-9 is MDA-MB-231 which is stably co-transfected with the VEGF-Luc construct (VEGF promoter in pGL2-basic) and a plasmid containing the Geneticin (G418) resistance gene which forms VEGF promoter reporter gene. The expression of the reporter gene in the clone cells, as measured by luciferase activity, is stable.
The effect of Compound A on VEGF inhibition was evaluated using the VEGF reporter gene based assay.
Lysis Assay Buffer (1×) • Tris-Phosphate (pH 7.8)-125 mM, DTT-10 mM, EDTA-10 mM, Glycerol-50% and Triton X-100-5%.
Luciferase Assay Reagent (LAR) • Luciferase Assay Buffer-8 mL, 530 μM ATP-530 μL, 270 μM CoA-1 mL and 170 μM Luciferin-1 mL.
Luciferase Assay Buffer (LAB) (1×) • Tricin (pH 7.8)-20 mM, Magnesia Alba-1.07 mM, MgSO4-2.67 mM, EDTA-0.1 mM and DTT-33.3 mM. ATP Stock made in LAB=5.85 mg/mL CoA Stock made in LAB=2.1 mg/mL Luciferin Stock made in LAB=1.5 mg/mL
1. M-9 cells were sub-cultured and maintained in RPMI-1640 Medium with supplement of 10% FBS, and 4 μL/ml G418 (Stock 100 mg/mL) in a humidified incubator at 37° C. and 5% CO2. 2. Cells were seeded at density of 3×10^4 cells/well in 180 μL volume in tissue culture grade 96 well white plates as well as transparent plates and allowed to adhere for 16-20 h in humidified CO2 incubator (5% CO2) at 37° C. A total of two sets of plates were made, as the incubation conditions are different. 3. Compound A, Sutent® and BSI-201 were diluted in medium serially so that final desired concentrations are achieved in the respective wells. (not more than 0.5% concentration of DMSO in the wells). 4. INCUBATION CONDITIONS: One set of plates are incubated under ambient atmospheric condition with 5% CO2, referred hereafter as NORMOXIC/OXIC PLATE. […] To all the wells, 100 μL Luciferase Assay Reagent (LAR) are added, plates are immediately read for Luminescence on TOPCOUNT™ (Packard, USA). The percentage inhibitions and Inhibitory Concentration (IC50) or Effective Concentration (EC50) are calculated in comparison with Control (untreated) values. […]

[5] = test system: BT-549; test: Cytotoxicity assay using propidium iodide (PI); assay type: cell-based; conditions: Homo sapiens, 48 h treatment
Description: as §1, with “The propidium iodide fluorescence assay (PI) was carried out according to the procedure mentioned in Anticancer Drugs, 1995, 6, 522-32. The” for “The”, “the” for “the test”, “only” for “only,”, “iodide. The human breast cancer cell lines (i.e. […] Control wells were treated with vehicle (DMSO). At the end of the incubation periods, the plates were assayed using PI cytotoxicity assay protocol. Percent cytoxicity was calculated at various drug concentrations and from the graph plotted the IC50 values were determined.” for “iodide.”

[6] = test system: MDA-MB-468; test: Cytotoxicity assay using propidium iodide (PI); assay type: cell-based, human; conditions: Homo sapiens, 48 h treatment, PI assay
Description: as §1, with “The propidium iodide fluorescence assay (PI) was carried out according to the procedure mentioned in Anticancer Drugs, 1995, 6, 522-32. The” for “The”, “the” for “the test”, “only” for “only,”, “iodide. The human breast cancer cell lines (i.e. […] Control wells were treated with vehicle (DMSO). At the end of the incubation periods, the plates were assayed using PI cytotoxicity assay protocol. Percent cytoxicity was calculated at various drug concentrations and from the graph plotted the IC50 values were determined.” for “iodide.”

Compound	inhibition at 0.03 µM ([1]; paclitaxel 0.03 μM 24 h)	inhibition at 0.1 µM ([1]; paclitaxel 0.1 μM 24 h)	inhibition at 0.3 µM ([1]; paclitaxel 0.3 μM 24 h)	inhibition at 1 µM ([1]; paclitaxel 1.0 μM 24 h)	inhibition at 3 µM ([1]; paclitaxel 3.0 μM 24 h)	IC50 [2]	% apoptosis at 72 h [3]	IC50 [4]	IC50 [5]	IC50 [6]
CC(=O)O[C@H]1C(=O)[C@@]2(C)[C@H]([C@H](OC(=O)c3ccccc3)[C@]3(O)C[C@H](OC(=O)[C@H](O)[C@@H](NC(=O)c4ccccc4)c4ccccc4)C(C)=C1C3(C)C)[C@]1(OC(C)=O)CO[C@@H]1C[C@@H]2O [Paclitaxel]	-2.6%	8.3%	82.9%	88.7%	89.1%	0.9 µM				
NC(=O)c1ccc(I)c([N+](=O)[O-])c1 [BSI-201, reference compound]							12.67%	> 100 µM		
CCN(CC)CCNC(=O)c1c(C)[nH]c(/C=C2\C(=O)Nc3ccc(F)cc32)c1C [Sunitinib, reference compound]						7.8 µM		15 µM	18 µM	10 µM
